Measured values as given in patent US20210059246A1, “METHOD FOR EFFECTIVELY CONTROLLING COCCOID INSECT PESTS” (Ecología y Protección Agrícola, S.L., priority 2017, published 2021).
Where “and” joins values, the source holds several entries; their conditions need not be identical. Equal entries are not always repeated.

How the values were obtained:
[1] = system: Aonidiella aurantii males; experiment: Field trap test: effective flow attracting A. aurantii males within the interlinked semiochemical matrix; format: in vivo; conditions: for EFFECTIVE FLOW: orange
Experimental: Experiments for obtaining an effective flow to combat the diaspidid Aonidiella aurantii were carried out on citrus crops located in the province of Huelva in 2015 and 2016.
For these assays, four plots of different varieties of citrus trees with surface areas comprised between 2 and 10 hectares were initially taken.
An artificial semiochemical matrix 1 was generated therein by arranging 500 diffusers/ha, with a substantially constant initial emission flow-1 of 300 μg/diffuser/day (optimal flow according to the state of the art) of (3S,6RS)-3-methyl-6-isopropenyl-9-decen-1-yl acetate.
In the interior of these artificial semiochemical matrices, two blocks of seven diffusers with different emission flows were installed in each assay. These blocks were separated by a distance of more than 80 meters therebetween and the diffusers were separated 25 meters intra-block. Each block included: • (a) a glued trap, without any kind of semiochemical emission; • (b) a glued trap, with a diffuser with a substantially constant emission flow of 25 μg/day of (3S,6RS)-3-methyl-6-isopropenyl-9-decen-1-yl acetate. • (c) a glued trap, with a diffuser with a substantially constant emission flow of 50 μg/day of (3S,6RS)-3-methyl-6-isopropenyl-9-decen-1-yl acetate. • (d) a glued trap, with a diffuser with a substantially constant emission flow of 100 μg/day of (3S,6RS)-3-methyl-6-isopropenyl-9-decen-1-yl acetate. • (e) a glued trap with a diffuser with a substantially constant emission flow of 200 μg/day of (3S,6RS)-3-methyl-6-isopropenyl-9-decen-1-yl acetate. • (f) a glued trap with a diffuser with a substantially constant emission flow of 300 μg/day of (3S,6RS)-3-methyl-6-isopropenyl-9-decen-1-yl acetate (initial flow-1). • (g) a glued trap with a diffuser with a substantially constant emission flow of 400 μg/day of (3S,6RS)-3-methyl-6-isopropenyl-9-decen-1-yl acetate.
All the traps were placed in the trees at a height of 1.5 m. The traps used were of the 9.5×15 cm white sticky sheet type. Diffusers with a substantially constant emission flow were fixed to the center of the sticky sheet. Replacement of the sheets, intra-block rotation of the traps and reading of the male captures was performed on a weekly basis. Upon completing the first rotation of the traps, it was observed that those whose emission corresponded to the flow of […] had the highest number of captured males and not the traps with an initial flow-1 of 300 μg/diffuser/day (FIG. 1).
Subsequently, a new iteration for obtaining the effective flow-2 within the new interlinked matrix was initiated, to which end the previous diffusers were withdrawn and a new artificial semiochemical matrix-2 was generated through the installation of 500 diffusers/ha, with a substantially constant initial emission flow-2 equal to 25 μg/day (effective flow-1) of (3S,6RS)-3-methyl-6-isopropenyl-9-decen-1-yl acetate.
Two blocks of seven diffusers were installed in the interior of this new interlinked semiochemical matrix in each assay. These blocks were separated by a distance of more than 80 meters therebetween and the diffusers were separated 25 meters intra-block. […]

[2] = system: Aonidiella aurantii; experiment: Field control of A. aurantii in citrus crops, percentage of damaged fruit; format: in vivo; conditions: 15.00 μg/diffuser/day
Experimental: With the final effective flow value (15 μg/diffuser/day), the assays for ascertaining the effective flow rate resulting from the combinations of the final effective flow of 15 μg/diffuser/day with an effective number of devices of 500 diffusers/ha, 380 diffusers/ha, 250 diffusers/ha, 100 diffusers/ha and 50 diffusers/ha continued in 2017, in addition to the result of chemical controls carried out using the products currently authorized to combat this pest. The effectiveness of the treatments was evaluated in accordance with the percentage of damaged fruit by means of sampling prior to picking the fruit. In order to determine said percentage, the number of shields of A. aurantii females per fruit was counted using the following protocol: 20 trees were selected per hectare and 10 fruits were taken from each tree: 8 from the exterior (from all the orientations and randomly) and 2 from the interior (randomly). A fruit with more than 10 shields was considered damaged. In the case of the treatment based on chemical control, a surface area equivalent to the other treatments was evaluated.

[3] = system: Aonidiella aurantii males; conditions: within natural semiochemical matrix; Vacas et al. 2017; cited from earlier work
[4] = system: Aonidiella aurantii; experiment: Field control of A. aurantii in citrus crops, percentage of damaged fruit; format: in vivo; conditions: for EFFECTIVE CONTROL [% DAMAGE]: orange
[5] = system: Planococcus ficus males; experiment: Field trap test: effective flow attracting P. ficus males within the interlinked semiochemical matrix; format: in vivo; conditions: for EFFECTIVE FLOW: table grapes
Experimental: The response of the males of the species P. ficus, at different emission flows of senecioate S-lavandulyl, was evaluated in various field tests carried out on table grape crops located in the Municipal District of […] de Murcia and Totana, both municipalities in the Region of Murcia in 2015, 2016 and 2017. For these assays, four plots of different varieties of table grapes with surface areas comprised between 1 and 4 hectares were initially taken. An artificial semiochemical matrix-1 was generated therein through the installation of 1,000 diffusers/ha, with a substantially constant emission flow of 300 μg/day of S-lavandulyl senecioate (initial flow-1). The choice of this initial emission flow is based on the average emission of commercial diffusers for controlling this pest. In the interior of these artificial semiochemical matrices, two blocks of six diffusers with different emission flows were installed in each assay. These blocks were separated by a distance of more than 80 meters therebetween and the diffusers were separated 25 meters intra-block. Each block included: • (a) a glued trap, without any kind of semiochemical emission. • (b) a glued trap, with a substantially constant emission flow of 10 μg/day of S-lavandulyl senecioate. • (c) a glued trap, with a diffuser with a substantially constant emission flow of 50 μg/day of S-lavandulyl senecioate. • (d) a glued trap, with a diffuser with a substantially constant emission flow of 100 μg/day of S-lavandulyl senecioate. • (e) a glued trap with a diffuser with a substantially constant emission flow of 200 μg/day of S-lavandulyl senecioate. • (f) a glued trap with a diffuser with a substantially constant emission flow of 300 μg/day of S-lavandulyl senecioate (initial flow-1). All the traps were placed in the trees at a height of 2 m. The traps used were of the 9.5×15 cm white sticky sheet type. Diffusers with a substantially constant emission flow were fixed to the center of the sticky sheet. Replacement of the sheets, intra-block rotation of the traps and reading of the male captures was performed on a weekly basis. Upon completing the first rotation of the traps it was observed that those whose emission corresponded to the emission flow of […] (effective flow-1) achieved the highest number of captures within the interlinked semiochemical matrix (FIG. 4). Next, a new iteration for obtaining the effective flow-2 within the new interlinked matrix was initiated, to which end the previous diffusers were withdrawn and a new artificial semiochemical matrix-2 was generated through the installation of 1,000 diffusers/ha, with a substantially constant emission flow of 10 μg/day (effective flow-1) of S-lavandulyl senecioate. Two blocks of six diffusers were installed in the interior of this new interlinked semiochemical matrix in each assay. These blocks were separated by a distance of more than 80 meters therebetween and the diffusers were separated 25 meters intra-block. Each block included: • (a) a glued trap, without any kind of semiochemical emission; • (b) a glued trap, with a diffuser with a substantially constant emission flow of 0.1 μg/day of S-lavandulyl senecioate. • (c) a glued trap, with a diffuser with a substantially constant emission flow of 5 μg/day of S-lavandulyl senecioate. • (d) a glued trap, with a diffuser with a substantially constant emission flow of 10 μg/day of S-lavandulyl senecioate. • (e) a glued trap with a diffuser with a substantially constant emission flow of 15 μg/day of S-lavandulyl senecioate. • (f) a glued trap with a diffuser with a substantially constant emission flow of 25 μg/day of S-lavandulyl senecioate. • (g) a glued trap with a diffuser with a substantially constant emission flow of 50 μg/day of S-lavandulyl senecioate. All the traps were placed in the trees at a height of 2 m. The traps used were of the 9.5×15 cm white sticky sheet type. The diffusers with a substantially constant emission flow were fixed to the center of the sticky sheet. […]

[6] = system: Planococcus ficus; experiment: Field control of P. ficus in table grape crops, percentage of bunches with presence of pest, molasses or fumigines; format: in vivo; conditions: table grapes
Experimental: With the final definitive effective flow value (5-10 μg/diffuser/day), the assays for ascertaining the effective flow rate resulting from the combinations of the final effective flow with an effective number of devices of 1,000 diffusers/ha, 500 diffusers/ha, 250 diffusers/ha and 100 diffusers/ha continued in 2016 and 2017. Since the plots where the assays were carried out were used for organic or environmentally friendly farming, it was not possible to establish a chemical control for comparing the results of the effective control of Planococcus ficus. The effectiveness of the treatments was assessed in accordance with the percentage of bunches with presence of Planococcus ficus, molasses or fumigines by sampling prior to picking the grapes. In order to determine said percentage, 20 vines per hectare were taken randomly and 20 bunches were inspected in each, of which the 10 bunches closest to the center of the vine and the 10 bunches farthest from the vine were chosen, covering the entire vine. Both bunches in contact with primary branches were taken and isolated without touching any other branch. A total of […].

Compound: C=CCCC(CC[C@H](C)CCOC(C)=O)C(=C)C (mixture of isomers) [(3S,6RS)-3-methyl-6-isopropenyl-9-decen-1-yl acetate]
- EFFECTIVE FLOW ([1]; 1st iteration, artificial semiochemical matrix 300.00 μg/diffuser/day, 500 diff/Ha, 2015 Rio Tinto-Huelva): 25.00 μg/diffuser/day
- EFFECTIVE FLOW ([1]; 2nd iteration, artificial semiochemical matrix 25.00 μg/diffuser/day, 500 diff/Ha, 2016 Nerva Huelva): 15.00 μg/diffuser/day
- EFFECTIVE FLOW ([1]; 3rd iteration, artificial semiochemical matrix 15.00 μg/diffuser/day, 380 diff/Ha, 2016 El Campillo-Huelva): 15.00 μg/diffuser/day
- emission flow with the highest number of captured males (effective flow-1) ([1]; first rotation, matrix-1 of 500 diffusers/ha at 300 μg/diffuser/day, FIG. 1): 25 µg/diffuser/day
- emission flow with higher number of captures (effective flow-2) ([1]; matrix-2 of 500 diffusers/ha at 25 μg/day, FIG. 2): 15 µg/day
- final effective flow ([1]; third iteration, matrix of 500 diffusers/ha at 15 μg/day, FIG. 3): 15 μg/diffuser/day
- EFFECTIVE CONTROL [% DAMAGE] ([2]; 50 diff/Ha, 0.75 mg/Ha/day, 2017 Serra-Valencia, orange): 3.30% and 4.00%
- EFFECTIVE CONTROL [% DAMAGE] ([2]; 100 diff/Ha, 1.50 mg/Ha/day, 2017 Serra-Valencia, orange): 5.10% and 3.80%
- EFFECTIVE CONTROL [% DAMAGE] ([2]; 250 diff/Ha, 3.75 mg/Ha/day, 2017 Monserrat-Valencia, mandarine): 4.20%
- EFFECTIVE CONTROL [% DAMAGE] ([2]; 250 diff/Ha, 3.75 mg/Ha/day, 2017 Monserrat-Valencia, orange): 3.00%
- EFFECTIVE CONTROL [% DAMAGE] ([2]; 250 diff/Ha, 3.75 mg/Ha/day, 2017 Picasent-Valencia, mandarine): 1.90%
- optimal flow according to the state of the art [3]: 300 μg/diffuser/day
- effective flow rate value determined within the interlinked semiochemical matrix after successive iterations ([4]; 5 μg/day at 500 emission points per hectare): 2.5 mg per hectare and day
- EFFECTIVE CONTROL [% DAMAGE] ([4]; 15.00 μg/diffuser/day, 380 diff/Ha, 5.70 mg/Ha/day, 2016 El Campillo-Huelva): 1.70% and 0.70% and 0.60%
- flow rate corresponding to the optimal flow according to the state of the art ([4]; 300 μg/day at 500 emission points per hectare): 150 mg per hectare and day
- EFFECTIVE CONTROL [% DAMAGE] ([4]; matrix 25.00 μg/diffuser/day, 500 diff/Ha, 12.50 mg/Ha/day, 2016 Nerva Huelva): 7.30% and 7.50% and 8.00%

Compound: C=C(C)[C@H](CC=C(C)C)COC(=O)C=C(C)C [S-lavandulyl senecioate]
- EFFECTIVE FLOW ([5]; 1st iteration, artificial semiochemical matrix 300.00 μg/diffuser/day, 1,000 diff/Ha, 2015 Alhama de Murcia): 10.00 μg/diffuser/day
- EFFECTIVE FLOW ([5]; 2nd iteration, artificial semiochemical matrix 10.00 μg/diffuser/day, 1,000 diff/Ha, 2016 Alhama de Murcia): 10.00 μg/diffuser/day
- EFFECTIVE FLOW ([5]; 3rd iteration, artificial semiochemical matrix 5.00 μg/diffuser/day, 1,000 diff/Ha, 2017 Alhama de Murcia): 5.00 μg/diffuser/day
- EFFECTIVE FLOW ([5]; 3rd iteration, artificial semiochemical matrix 10.00 μg/diffuser/day, 500 diff/Ha, 2016 Alhama de Murcia): 10.00 μg/diffuser/day
- final definitive effective flow value ([5]; after second iteration): 5-10 μg/diffuser/day
- emission flow with the highest number of captures (effective flow-1) ([5]; matrix-1 of 1,000 diffusers/ha at 300 μg/day, FIG. 4): 10 µg/day
- flows with the highest number of male captures ([5]; matrix-2 of 1,000 diffusers/ha at 10 μg/day, FIG. 5): 5 µg/day and 10 µg/day
- EFFECTIVE CONTROL [% DAMAGE] ([6]; 5 μg/diffuser/day, 100 diff/Ha, 0.50 mg/Ha/day, 2017 Totana-Murcia): 4.50%
- EFFECTIVE CONTROL [% DAMAGE] ([6]; 5 μg/diffuser/day, 250 diff/Ha, 1.25 mg/Ha/day, 2017 Totana-Murcia): 1.80%
- EFFECTIVE CONTROL [% DAMAGE] ([6]; 5.00 μg/diffuser/day, 500 diff/Ha, 2.50 mg/Ha/day, 2017 Alhama de Murcia): 0.80% and 1.40%
- EFFECTIVE CONTROL [% DAMAGE] ([6]; 5.00 μg/diffuser/day, 1,000 diff/Ha, 5.00 mg/Ha/day, 2017 Alhama de Murcia): 2.30% and 0.00%
- EFFECTIVE CONTROL [% DAMAGE] ([6]; 10 μg/diffuser/day, 100 diff/Ha, 1.00 mg/Ha/day, 2017 Totana-Murcia): 3.00%
- EFFECTIVE CONTROL [% DAMAGE] ([6]; 10 μg/diffuser/day, 250 diff/Ha, 2.50 mg/Ha/day, 2017 Totana-Murcia): 2.90%
- EFFECTIVE CONTROL [% DAMAGE] ([6]; 10.00 μg/diffuser/day, 500 diff/Ha, 5.00 mg/Ha/day, 2016 Alhama de Murcia): 0%
- EFFECTIVE CONTROL [% DAMAGE] ([6]; 10.00 μg/diffuser/day, 1,000 diff/Ha, 10.00 mg/Ha/day, 2016 Alhama de Murcia): 1.20% and 0.90% and 3.70%
